# Article PMC11571207, “Stereorandomized Oncocins with Preserved Ribosome Binding and Antibacterial Activity” (Journal of Medicinal Chemistry, 2024)
# Read-outs that look alike come from different tables or passages of the source. Non-standard residues stand in square brackets, D forms with d. Residues, ends and D or L forms follow the SMILES beside them. No end group written: not given here.
# Assays:
# [1] = system: S. aureus COL (MRSA); test: microbe, parasite or virus in culture; details: for MIC S. aureus, 12.5% MHB / MIC S. aureus, Full MHB: S. aureus COL (MRSA), 16–20 h at 37 °C; for MIC S. aureus, 12.5% MHB: 12.5% Müller–Hinton medium; for MIC S. aureus, Full MHB: full Müller–Hinton medium; for MIC S. aureus COL (MRSA): supplement CSV
# Outline: (§1)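 Read-out was visible growth after MTT addition, the MIC being the lowest inhibitory peptide concentration. Bacteria grown to log phase in LB were exposed in MH medium to peptide from 64 μg/mL in twofold dilutions for 15-18h at 37°C.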
# [2] = system: A. baumannii ATCC19606; test: microbe, parasite or virus in culture; details: for MIC A. baumannii, 12.5% MHB / MIC A. baumannii, Full MHB: A. baumannii ATCC19606, 16–20 h at 37 °C; for MIC A. baumannii, 12.5% MHB: 12.5% Müller–Hinton medium; for MIC A. baumannii, Full MHB: full Müller–Hinton medium; for MIC A. baumannii ATCC19606: supplement CSV
# Outline: as §1
# [3] = system: K. pneumoniae NCTC 418; test: microbe, parasite or virus in culture; details: for MIC K. pneumoniae, 12.5% MHB / MIC K. pneumoniae, Full MHB: K. pneumoniae NCTC 418, 16–20 h at 37 °C; for MIC K. pneumoniae, 12.5% MHB: 12.5% Müller–Hinton medium; for MIC K. pneumoniae, Full MHB: full Müller–Hinton medium; for MIC K. pneumoniae NCTC418: supplement CSV
# Outline: as §1
# [4] = system: P. aeruginosa PAO1; test: microbe, parasite or virus in culture; details: for MIC P. aeruginosa, 12.5% MHB / MIC P. aeruginosa, Full MHB: P. aeruginosa PAO1, 16–20 h at 37 °C; for MIC P. aeruginosa, 12.5% MHB: 12.5% Müller–Hinton medium; for MIC P. aeruginosa, Full MHB: full Müller–Hinton medium; for MIC P. aeruginosa PAO1: supplement CSV
# Outline: as §1
# [5] = system: E. coli W3110; test: microbe, parasite or virus in culture; details: for MIC E. coli, 12.5% MHB / MIC E. coli, Full MHB: E. coli W3110, 16–20 h at 37 °C, broth microdilution; for MIC E. coli, 12.5% MHB: 12.5% Müller–Hinton medium; for MIC E. coli, Full MHB: full Müller–Hinton medium; for MIC E. coli W3110: supplement CSV
# Outline: as §1
# [6] = system: P. aeruginosa PA14 4.13 (phoQ); details: for MIC P. aeruginosa PA14 4.13 (phoQ), 12.5% MHB / MIC P. aeruginosa PA14 4.13 (phoQ), full MHB: polymyxin B resistant strain, 16–20 h at 37 °C; for MIC P. aeruginosa PA14 4.13 (phoQ), 12.5% MHB: 12.5% MHB pH 7.4; for MIC P. aeruginosa PA14 4.13 (phoQ), full MHB: full MHB pH 7.4; for MIC P. aeruginosa PA14 4.13: supplement CSV
Compound,"MIC S. aureus, 12.5% MHB [1]","MIC S. aureus, Full MHB [1]",MIC S. aureus COL (MRSA) ([1]; 12.5% MH pH 7.4) [µg/mL],MIC S. aureus COL (MRSA) ([1]; full MH pH 7.4) [µg/mL],"MIC A. baumannii, 12.5% MHB [2] [µg/mL]","MIC A. baumannii, Full MHB [2] [µg/mL]",MIC A. baumannii ATCC19606 ([2]; 12.5% MH pH 7.4) [µg/mL],MIC A. baumannii ATCC19606 ([2]; full MH pH 7.4) [µg/mL],"MIC K. pneumoniae, 12.5% MHB [3]","MIC K. pneumoniae, Full MHB [3]",MIC K. pneumoniae NCTC418 ([3]; 12.5% MH pH 7.4) [µg/mL],MIC K. pneumoniae NCTC418 ([3]; full MH pH 7.4) [µg/mL],"MIC P. aeruginosa, 12.5% MHB [4] [µg/mL]","MIC P. aeruginosa, Full MHB [4] [µg/mL]",MIC P. aeruginosa PAO1 ([4]; 12.5% MH pH 7.4) [µg/mL],MIC P. aeruginosa PAO1 ([4]; full MH pH 7.4) [µg/mL],"MIC E. coli, 12.5% MHB [5] [µg/mL]","MIC E. coli, Full MHB [5] [µg/mL]",MIC E. coli W3110 ([5]; 12.5% MH pH 7.4) [µg/mL],MIC E. coli W3110 ([5]; full MH pH 7.4) [µg/mL],further results
CC[C@@H](C)[C@@H](NC(=O)[C@@H](CCCNC(=N)N)NC(=O)[C@@H](CCCNC(=N)N)NC(=O)[C@H]1CCCN1C(=O)[C@H]1CCCN1C(=O)[C@@H](CCCNC(=N)N)NC(=O)[C@H]1CCCN1C(=O)[C@@H](CCCNC(=N)N)NC(=O)[C@H]1CCCN1C(=O)[C@@H](CC(C)C)NC(=O)[C@@H](Cc1ccc(O)cc1)NC(=O)[C@H]1CCCN1C(=O)[C@H]1CCCN1C(=O)[C@@H](CCCCN)NC(=O)[C@@H](CC(=O)O)NC(=O)[C@H](N)C(C)C)C(=O)N[C@H](Cc1ccc(O)cc1)C(=O)N[C@H](CC(N)=O)C(=O)N[C@H](CCCNC(=N)N)C(N)=O [D-Onc] (H-[dV][dD][dK][dP][dP][dY][dL][dP][dR][dP][dR][dP][dP][dR][dR][dI][dY][dN][dR]-NH2),>64 / 64 μg/mL,>64 / 64 μg/mL,64,>64,16,> 64,16,>64,> 16 µg/mL,> 64 µg/mL,>16,>64,8,> 64,8,>64,8,32,8,32,"MIC P. aeruginosa PA14 4.13 (phoQ), 12.5% MHB [6]: 16 µg/mL; MIC P. aeruginosa PA14 4.13 (phoQ), full MHB [6]: > 64 µg/mL; MIC P. aeruginosa PA14 4.13 ([6]; 12.5% MH pH 7.4): 16 µg/mL; MIC P. aeruginosa PA14 4.13 ([6]; full MH pH 7.4): >64 µg/mL"
CC[C@H](C)[C@H](NC(=O)[C@H](CCCNC(=N)N)NC(=O)[C@H](CCCNC(=N)N)NC(=O)[C@@H]1CCCN1C(=O)[C@@H]1CCCN1C(=O)[C@H](CCCNC(=N)N)NC(=O)[C@@H]1CCCN1C(=O)[C@H](CCCNC(=N)N)NC(=O)[C@@H]1CCCN1C(=O)[C@@H](CC(C)C)NC(=O)[C@H](Cc1ccc(O)cc1)NC(=O)[C@@H]1CCCN1C(=O)[C@@H]1CCCN1C(=O)[C@H](CCCCN)NC(=O)[C@H](CC(=O)O)NC(=O)[C@@H](N)C(C)C)C(=O)N[C@@H](Cc1ccc(O)cc1)C(=O)N[C@@H](CC(N)=O)C(=O)N[C@@H](CCCNC(=N)N)C(N)=O [DL7-Onc] (H-VDKPPY[dL]PRPRPPRRIYNR-NH2),>64 / >64 μg/mL,>64 / >64 μg/mL,>64,>64,> 16,> 64,>16,>64,> 16 µg/mL,> 64 µg/mL,>16,>64,> 16,> 64,>16,>64,8,> 64,8,>64,"MIC P. aeruginosa PA14 4.13 (phoQ), 12.5% MHB [6]: >32/>32 μg/mL; MIC P. aeruginosa PA14 4.13 (phoQ), full MHB [6]: >32/>32 μg/mL; MIC P. aeruginosa PA14 4.13 ([6]; 12.5% MH pH 7.4): >32 µg/mL; MIC P. aeruginosa PA14 4.13 ([6]; full MH pH 7.4): >32 µg/mL"
"CC[C@H](C)[C@H](NC(=O)[C@@H](CCCNC(=N)N)NC(=O)[C@H](CCCNC(=N)N)NC(=O)[C@@H]1CCCN1C(=O)[C@@H]1CCCN1C(=O)[C@H](CCCNC(=N)N)NC(=O)[C@@H]1CCCN1C(=O)[C@H](CCCNC(=N)N)NC(=O)[C@@H]1CCCN1C(=O)[C@H](CC(C)C)NC(=O)[C@H](Cc1ccc(O)cc1)NC(=O)[C@@H]1CCCN1C(=O)[C@@H]1CCCN1C(=O)[C@H](CCCCN)NC(=O)[C@H](CC(=O)O)NC(=O)[C@@H](N)C(C)C)C(=O)N[C@@H](Cc1ccc(O)cc1)C(=O)N[C@@H](CC(N)=O)C(=O)N[C@H](CCCNC(=N)N)C(N)=O [Onc112, reference compound] (H-VDKPPYLPRPRPPR[dR]IYN[dR]-NH2)",32 µg/mL,> 64 µg/mL,32,>64,4,32,4,32,2 µg/mL,4 µg/mL,2,4,4,64,4,64,2,4,2,4,"MIC P. aeruginosa PA14 4.13 (phoQ), 12.5% MHB [6]: 16 µg/mL; MIC P. aeruginosa PA14 4.13 (phoQ), full MHB [6]: > 32 µg/mL; MIC P. aeruginosa PA14 4.13 ([6]; 12.5% MH pH 7.4): 16 µg/mL; MIC P. aeruginosa PA14 4.13 ([6]; full MH pH 7.4): >32 µg/mL"
"VDKPPYLPRPRPPRRIYNR-NH2 [L-Onc, reference compound]",32 µg/mL,> 64 µg/mL,32,>64,4,32,4,32,4 / 4 μg/mL,4 / 4 μg/mL,4,4,16,> 64,16,>64,2,4,2,4,"MIC P. aeruginosa PA14 4.13 (phoQ), 12.5% MHB [6]: 16 µg/mL; MIC P. aeruginosa PA14 4.13 (phoQ), full MHB [6]: > 64 µg/mL; MIC P. aeruginosa PA14 4.13 ([6]; 12.5% MH pH 7.4): 16 µg/mL; MIC P. aeruginosa PA14 4.13 ([6]; full MH pH 7.4): >64 µg/mL"
"polymyxin B [PMB, reference compound]",>16 / 16 μg/mL,>16 / 16 μg/mL,16,>16,0.5,0.25,0.5,0.25,1 µg/mL,0.5 µg/mL,1,0.5,1,0.5,1,0.5,0.5,0.25,0.5,0.25,"MIC P. aeruginosa PA14 4.13 (phoQ), 12.5% MHB [6]: 2/2 μg/mL; MIC P. aeruginosa PA14 4.13 (phoQ), full MHB [6]: 2/2 μg/mL; MIC P. aeruginosa PA14 4.13 ([6]; 12.5% MH pH 7.4): 2 µg/mL; MIC P. aeruginosa PA14 4.13 ([6]; full MH pH 7.4): 2 µg/mL"
